From US20240025899A1, “TRIHETEROCYCLIC DERIVATIVE, AND PHARMACEUTICAL COMPOSITION AND APPLICATION THEREOF” (SHANGHAI DE NOVO PHARMATECH CO., LTD., priority 2020, published 2024)
Structures can show the parent of a compound that is named as a salt.

Tested on: OCI-LY19 human B-cell lymphoma
Experiment: In vivo drug efficacy, OCI-LY19 human B-cell lymphoma mouse subcutaneous xenograft tumor model
Procedure: Cell culture: Human B-cell lymphoma OCI-LY19 cells were maintained as a monolayer in MEM-α medium containing 10% fetal bovine serum in a constant temperature incubator at 37° C. with 5% CO2. Tumor cells were subcultured twice a week. Cells in exponential growth phase were harvested and counted for inoculation.
Experimental animals: BALB/c nude mice, 6-8 weeks old, 19-22 g, purchased from Beijing Vital River Laboratory Animal Technology Co., Ltd.
For Vehicle, positive control (AZD6738, CAS number: 1352226-88-0) and compound 2, a total of 6 experimental groups were set up, as shown in Table 5 below:
Experimental method: The OCI-LY19 cell line (3.0×10^6 cells/mouse) was inoculated subcutaneously on the right back of the experimental mouse, and the inoculation volume of each mouse was 0.1 mL, and the growth of tumors was observed regularly, and until the tumor grew to about 100 mm^3, the mice were randomly divided into groups according to the tumor size and body weight, and administered according to the administration plan shown in Table 5, and the mouse body weight and tumor size were measured twice a week during the whole experiment.
tumor volume (mm^3)=0.5×(tumor long diameter×tumor short diameter^2). Tumor size calculation formula: […]

[1] = Group 3, 5 mg/kg p.o. once a day
[2] = Group 4, 10 mg/kg p.o. once a day
[3] = Group 5, 10 mg/kg p.o. once a day × 4 days on, 3 days off
[4] = Group 6, 20 mg/kg p.o. once a day × 4 days on, 3 days off

For `C[C@@H]1COCCN1c1nc2c(cnn2-c2cc[nH]n2)c2c1CCN2S(C)(=O)=O` [Compound 2, (R)-3-methyl-4-(1-(methylsulfonyl)-6-(1H-pyrazol-3-yl)-1,2,3,6-tetrahydropyrazolo[3,4-b]pyrrolo[2,3-d]pyridin-4-yl)morpholine trifluoroacetate], the “T/C (%)” value [1] was 17.9%, the “TGI (%)” value [1] was 86.0% and the “Tumor volume (10 days, mm^3)” value [1] was 109.41 ± 4.35 mm^3. For the same compound, the “Tumor volume (24 days, mm^3)” value [1] was 424.51 ± 77.26 mm^3, the “T/C (%)” value [2] was 8.5% and the “TGI (%)” value [2] was 95.9%. For the same compound, the “Tumor volume (10 days, mm^3)” value [2] was 109.00 ± 4.19 mm^3, the “Tumor volume (24 days, mm^3)” value [2] was 202.09 ± 44.85 mm^3 and the “T/C (%)” value [3] was 15.9%. The “TGI (%)” value [3] was 88.2%, the “Tumor volume (10 days, mm^3)” value [3] was 109.20 ± 3.96 mm^3 and the “Tumor volume (24 days, mm^3)” value [3] was 375.56 ± 92.96 mm^3. The “T/C (%)” value [4] was 7.9%, the “TGI (%)” value [4] was 96.5% and the “Tumor volume (10 days, mm^3)” value [4] was 109.24 ± 4.22 mm^3. The “Tumor volume (24 days, mm^3)” value [4] was 187.91 ± 27.01 mm^3.
